Patent US20070231258A1, “Peptide conjugates” (KARYON CTT LTD., priority 2006, published 2007)
*1 amine or outer side, *2 acyl side, *3 side chain or, on linkers, in order; H or OH if unused. Bridges are numbered along the chain shown (N, C = ends). Primed or numbered codes have the meaning given here. [ ]: non-standard residue; d: D form. DTPA′ = diethylenetriaminepentaacetic acid chelator; NHCH2CH2SCH2CO = O=C(CSCCN[*:1])[*:2]; Cysteamide = C(CS[*:3])N[*:1]; AEEEA = NCCOCCOCCOCC(=O)O; AABz = not defined here

Tests used:
[1] = tested on: SVEC4-10; test: Cell binding assay of immobilized peptide conjugate (MTT detection); type: cell-based, mouse; details: control cell line SVEC4-10, wells coated at 30 μg/ml, 30 min 37° C.
Description: The mouse vascular endothelial cell line SVEC4-10, called herein also “SVEC4-10”, has been described previously by O'Connell et al. in J. Immunol., 1990, 144: 521-525. The cell line was cultured in DMEM medium adjusted to contain 2 mM L-glutamine, 1% penicillin/streptomycin, and 10% fetal bovine serum.
(§1) Preparation of plates for the assays. Wells of Reacti-Bind Maleimide activated clear strip plate (Pierce, Prod#. 15150) were coated with a peptide conjugate a*YGFVWGEE*-(Teg-E)2-EAT, Compound MJ013 prepared in Example 3, at a concentration of 30 μg/ml. The incubation was carried out overnight at 20° C. The binding buffer containing unbound peptide was re-moved from the wells.
(§2) The wells were blocked with blocking buffer (0.5% BSA, 0.05% Tween20 in phosphate buffer saline (PBS). PBS was prepared as follows: 40 g of NaCl, 1 g of KCl, 7 g of Na2HPO4×2H2O and 1 g of KH2PO4 were dissolved in […] of deionized H2O). Blank wells as controls were prepared by treating empty wells with blocking buffer. […]
(§3) Cell binding assay: 75000 cells in volume of 150 μl of medium were added into coated wells and were incubated for 30 min at 37° C. […] After formazan was solubilized by 10% SDS-0,01 M HCl, it was quantified with an ELISA spectrometer (ThermoLabsystems Multiscan EX) at 560 nm. […] The following day the absorbance of plate was measured at 560 nm with an ELISA-reader (ThermoLab-systems, Multiskan EX).

[2] = tested on: HCT-15-LM1; test: as above; type: cell-based, human; details: HCT-15-LM1 cells, wells coated at 30 μg/ml, 30 min 37° C.
Excerpt: The colorectal cancer cell line HCT-15-LM1 was developed as follows. The cell culture was started with cancer cells from lung metastases which had developed after injection of human colorectal cancer HCT-15 cells into the bloodstream of a mouse. The inoculation procedure was then repeated with HCT-15-LM1 cells leading to the establishment of another metastatic cell line, HCT-15-LM2.
as §1
The wells were blocked with blocking buffer (0.5% BSA, 0.05% Tween20 in phosphate buffer saline (PBS). PBS was prepared as follows: 40 g of NaCl, 1 g of KCl, 7 g of Na2HPO4×2H2O and 1 g of KH2PO4 were dissolved in 1000 ml of deionized H2O). […]
as §3

[3] = tested on: HSC-3; test: as above; type: cell-based, human; details: HSC-3 cells, wells coated at 30 μg/ml, 30 min 37° C.
Description: The human oral squamous cell carcinoma line HSC-3, called herein “HSC-3” (JCRB Cell Bank 0623, National Institute of Health Sciences, Japan) was cultivated in 1:1 DMEM and Ham's F 12 medium containing 10% FBS 1% penicillin/streptomycin, L-glutamate and sodium pyruvate and 0.4 ng/ml hydrocortisone.
as §1, §2, §3

[4] = tested on: NIH3T3; test: as above; type: cell-based, mouse; details: control cell line NIH3T3, wells coated at 30 μg/ml, 30 min 37° C.
Description: The mouse fibroblast line NIH3T3, called herein also “NIH3T3”, has been described previously by Koga et al. in Gann, 1979, 70: 585-591. The cell line was cultured in DMEM medium adjusted to contain 2 mM L-glutamine, 1% penicillin/streptomycin, and 10% fetal bovine serum.
as §1, §2, §3

[5] = tested on: C8161T; test: as above; type: cell-based, human; details: C8161T cells, wells coated at 30 μg/ml, 30 min 37° C.
Description: The human melanoma cell line C8161 has been described previously by Welch et al. in Int. J. Cancer, 1991, 47: 227-237. A more metastatic cell line C8161T, called herein also “C8161T”, was developed by culturing cells from a subcutaneous melanoma tumor developed after inoculation of C8161 melanoma cells on the flank of a nude mouse. The cell line was cultured in DMEM medium adjusted to contain 2 mM L-glutamine, 1% penicillin/streptomycin, and 10% fetal bovine serum.
as §1, with “wells. […]” for “wells.”
as §3

[6] = tested on: HCT-15; test: as above; type: cell-based, human; details: HCT-15 cells, wells coated at 30 μg/ml, 30 min 37° C.
Description: The human colorectal cancer HCT-15 cell line (ATCC: CCL-225), called herein also “HCT-15”, was cultured in RPMI 1640 medium with 2 mM L-glutamine adjusted to contain 1.5 g/L sodium bicarbonate, 4.5 g/L glucose, 10 mM HEPES, and 1.0 mM sodium pyruvate, 1% penicillin/streptomycin, 10% fetal bovine serum.
as §1, §2, §3

[7] = tested on: HCT-15 tumors; test: Biodistribution of cystine- and lactam-bridged conjugates (Eu content) in HCT-15 tumor-bearing mice; type: in vivo, athymic-nu nude mice; details: 4 nmol MJ018 vs 16 nmol MJ069 i.v., 15 min circulation
Description: The biodistribution of the targeting agents MJ018 (lactam-bridged; described in Example 4) and MJ069 (cystine-bridged; described below) comprising functional peptide YGFVWGE was compared in mice carrying primary tumors of HTC-15, a human colorectal cancer cell line.
For production of experimental tumors, 22.5 million (for MJ018), and 1 million (for MJ069) HCT-15 cells were injected subcutaneously into both flanks of athymic-nu nude mice (Harlan Laboratories). The human colorectal cancer HCT-15 cell line (ATCC: CCL-225), called herein also “HCT-15”, was cultured in RPMI 1640 medium with 2 mM L-glutamine adjusted to contain 1.5 g/L sodium bicarbonate, 4.5 g/L glucose, 10 mM HEPES, and 1.0 mM sodium pyruvate, 1% penicillin/streptomycin, 10% fetal bovine serum.
Tumors were harvested when they had reached a minimum weight of 0.1 g. […]
For determination of the Eu content of the tumors and control or gans, 0.05-0.2 g of tissue was transferred into lysis buffer (20 mM Tris-HCl, 150 mM NaCl, 1% Nonident P40, pH 7.5) and homogenised. The Eu-content was determined from tissue lysates prepared into Enhancement solution (Perkin Elmer Wallac Ltd., Turku, Finland) and transferred to DELFIA Micro titration strip plates (Perkin Elmer Wallac Ltd., Turku, Finland). Time-resolved fluorescence was measured after incubation with a Wallac 1420 VICTOR3™ V plate reader using a D615 nm filter.

[8] = Plasma stability of the peptide conjugates in human blood plasma/PBS (HPLC)
Description: The peptide conjugates (10-20 μg) was added to a human blood plasma/PBS mixture (1:1) in a total volume of 500 μl and incubated at 37° C. After incubation 100 μl per time point (0 and 240 min) was transferred to YM-10 (Microcon, cut-off 10000 MW; manufacturer Millipore), centrifuged (10000 RPM) 15 min at 4° C. 50 μl of the spin-through material was analyzed by HPLC.
HPLC: Waters 626 pump, 600S controller, Waters 996 photo diode array detector. Column: C18, 300 Å, 5 μm, 2.1×250 mm. Eluents for the non-conjugated functional peptides: A 0.1% TFA, B 0.075% TFA/100% ACN. Gradient: 0-100% B in 60 min. Flow: 180 μl/min. Loop: 50 μl.
Eluents for the functional peptide conjugates: Eluent A: 0.05 M ammonium acetate; B: 50% 0.05 M ammonium acetate/50% ACN. Gradient: 0-100% B in 60 min. Flow: 180 μl/min. Loop: 50 μl. One-minute fractions were collected and analyzed with MALDI-TOF.
Peptide mass: Bruker Ultraflex MALDI-TOF, N2-laser 337 nm, matrix saturated solution of α-cyano-4-hydroxycinnamic acid, reflector mode.

## a*YGFVWGEE*-(Teg-E)2-EAT (YGFVWGEE[AEEEA]E[AEEEA]E-Cysteamide; lactam N-8; not fully specified (N-terminus)) [MJ013]
[1]
  cell binding to immobilized peptide conjugate (absorbance at 560 nm): significantly less binding
[2]
  cell binding to immobilized peptide conjugate (absorbance at 560 nm): bind selectively
[3]
  cell binding to immobilized peptide conjugate (absorbance at 560 nm): bind selectively
[4]
  cell binding to immobilized peptide conjugate (absorbance at 560 nm): significantly less binding
[5]
  cell binding to immobilized peptide conjugate (absorbance at 560 nm): bind selectively
[6]
  cell binding to immobilized peptide conjugate (absorbance at 560 nm): bind selectively

## a*YGFVWGEE*-(Teg-E)2-AEM-AABz-DTPA-Eu (YGFVWGEE[AEEEA]E[AEEEA]E-{NHCH2CH2SCH2CO-AABz-DTPA′}; lactam N-8; not fully specified (N-terminus); reading uncertain; also: DTPA chelate of Eu) [MJ018]
[7]
  accumulation in tumor tissue (tissue-to-muscle Eu content), lactam- vs cystine-bridged: accumulated more strongly in the tumor tissue than the cystine-bridged conjugate MJ069
[8]; 0 h, human blood plasma/PBS 1:1, 37° C.
  Observed compound peak heights prior to incubation: 100%
[8]; 4 h, human blood plasma/PBS 1:1, 37° C.
  Observed compound peak heights after four hours: 100%
[8]; 4 h incubation in human plasma
  degradation during incubation in plasma: no degradation
